Reference: patent US7087757B2, “Phenyl-substituted imidazopyridines” (Ortho-McNeil Pharmaceutical, Inc., priority 2000, dated 2006)

Molecular target: T1, human histamine H3 receptor (Homo sapiens, UniProt Q9Y5N1)
T1 construct: One microgram supercoiled H3 receptor cDNA was added to the cells and mixed; expressed in transfected cells; membranes prepared from cell pellets
Assay: [3H]-N-methylhistamine binding
Details: membranes of histamine H3 receptor-expressing SK-N-MC cells; 0.8 nM [3H]-N-methylhistamine; 45 minutes at 25° C.; Ki calculated with KD of 800 pM
Experimental: Screening using the human receptor is particularly important for the identification of new therapies for the treatment of human disease.
A 10 cm tissue culture dish with a confluent monolayer of SK-N-MC cells was split two days prior to transfection. Using sterile technique the media was removed and the cells were detached from the dish by the addition of trypsin. One fifth of the cells were then placed onto a new 10 cm dish. Cells were grown in a 37° C. incubator with 5% CO2 in Minimal Essential Media Eagle with 10% Fetal Bovine Serum. After two days cells were approximately 80% confluent. These were removed from the dish with trypsin and pelleted in a clinical centrifuge. […] One microgram supercoiled H3 receptor cDNA was added to the cells and mixed. The voltage for the electroporation was set at 0.25 kV, the capacitance is set at 960 μF.
After electroporation the cells were diluted into 10 mL complete media and plated onto four 10 cm dishes. Due to the variability in the efficiency of electroporation, four different concentrations of cells were plated. The ratios used were: 1:20, 1:10, and 1:5, with the remainder of the cells being added to the fourth dish. The cells were allowed to recover for 24 hours before adding the selection media (complete media with 600 μg/ml G418). After 10 days dishes were analyzed for surviving colonies of cells. Dishes with well-isolated colonies were used. Cells from individual colonies were isolated and tested. SK-N-MC cells were used because they give efficient coupling for inhibition of adenylate cyclase. The clones that gave the most robust inhibition of adenylate cyclase in response to histamine were used for further study.
Cell pellets from histamine H3 receptor-expressing SK-N-MC cells were homogenized in 20 mM Tris HCl/0.5 mM EDTA. Supernatants from a 800 g spin were collected, reccentrifuged at 30,000 g for 30 minutes. Pellets were rehomogenized in 50 mM Tris/5 mM EDTA (pH 7.4). Membranes were incubated with 0.8 nM [^3H]-N-methylhistamine plus/minus test compounds for 45 minutes at 25° C. and harvested by rapid filtration over GF/C glass fiber filters (pretreated with 0.3% polyethylenimine) followed by four washes with ice cold buffer. Filters were dried, added to 4 mL scintillation cocktail and then counted on a liquid scintillation counter.

T1 sequence (Q9Y5N1 whole entry): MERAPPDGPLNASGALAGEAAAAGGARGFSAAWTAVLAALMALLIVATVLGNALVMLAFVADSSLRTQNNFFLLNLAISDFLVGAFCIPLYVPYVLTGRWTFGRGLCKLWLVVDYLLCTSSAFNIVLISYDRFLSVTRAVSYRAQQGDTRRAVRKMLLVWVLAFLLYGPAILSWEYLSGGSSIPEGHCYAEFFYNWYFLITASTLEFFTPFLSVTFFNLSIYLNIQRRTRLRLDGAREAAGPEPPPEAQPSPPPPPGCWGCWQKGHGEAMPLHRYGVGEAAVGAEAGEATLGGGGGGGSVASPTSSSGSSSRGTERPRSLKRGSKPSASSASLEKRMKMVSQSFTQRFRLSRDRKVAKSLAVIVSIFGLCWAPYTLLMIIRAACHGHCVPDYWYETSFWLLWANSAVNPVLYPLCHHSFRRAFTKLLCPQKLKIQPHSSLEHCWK

Structure (SMILES)	Ki
Cc1cccn2cc(-c3ccc(OCC(O)CN4CCN(Cc5ccccc5)CC4)cc3)nc12 (centres unmarked) [Example 51, 2-[4-[2-Hydroxy-3-(4-benzylpiperazino)propoxy]phenyl]-8-methylimidazo[1,2-a]pyridine]	5000 nM
Cc1ccn2cc(-c3ccc(OCCCN4CCC(N5CCCCC5)CC4)cc3C)nc2c1 [Example 23, 2-(4-(4-Piperidino)piperidinopropoxy-2-methylphenyl)-7-methylimidazo[1,2-a]pyridine]	14 nM
CCN(CC)CCOC(=O)c1ccc(-c2cn3cccc(C)c3n2)cc1 [Example 3, 4-(8-Methyl-imidazo[1,2-a]pyridin-2-yl)-benzoic acid 2-diethylamino-ethyl ester]	20 nM
Cc1cccn2cc(-c3ccc(OCCCNC(C)c4ccccc4)cc3)nc12 (stereo not drawn) [Example 42, 2-(4-alpha-Methylbenzylaminopropoxyphenyl)-8-methylimidazo[1,2-a]pyridine]	1000 nM
CC1CCn2cc(-c3ccc(CCCCN4CCCCC4)cc3)nc2C1 (centres unmarked) [Example 41, 7-Methyl-2-[4-(4-piperidin-1-yl-butyl)-phenyl]-5,6,7,8-tetrahydro-imidazo[1,2-a]pyridine]	27 nM
Cc1cccn2cc(-c3ccc(NCCN4CCCC4)cc3)nc12 [Example 32, [4-(8-Methyl-imidazo[1,2-a]pyridin-2-yl)-phenyl]-(2-pyrrolidin-1-yl-ethyl)-amine]	7 nM
Cc1ccn2cc(-c3ccc(OCCCN4CCCCCC4)cc3F)nc2c1 [Example 21]	15 nM
CCN(CC)CCC(=O)Nc1ccc(-c2cn3cccc(C)c3n2)cc1 [Example 6, 3-Diethylamino-N-[4-(8-methyl-imidazo[1,2-a]pyridin-2-yl)-phenyl]-propionamide]	55 nM
Cc1ccn2cc(-c3ccc(C#CCCN4CCCCCC4)cc3)nc2c1 [Example 35]	50 nM
Cc1cccn2cc(-c3ccc(OCCCNCc4ccccc4)cc3)nc12 [Example 43, 2-(4-Benzylaminopropoxyphenyl)-8-methylimidazo[1,2-a]pyridine]	1000 nM
Cc1cccn2cc(-c3ccc(OCC(O)CNC(C)(C)C)cc3)nc12 (centres unmarked) [Example 49, 2-(4-(2-hydroxy-3-(1,1-Dimethylethyl)aminopropoxy)phenyl)-8-methylimidazo[1,2-a]pyridine]	1000 nM
CCCCN(CCCC)CC(O)COc1ccc(-c2cn3cccc(C)c3n2)cc1 (centres unmarked) [Example 48, 2-(4-Dibutylamino(2-hydroxy)propoxyphenyl)-8-methylimidazo[1,2-a]pyridine]	1000 nM
Cc1cc(-c2cn3cccc(C)c3n2)ccc1OCCCN1CCCCC1 [Example 9, 2-(4-Piperidinopropoxy-3-methylphenyl)-8-methylimidazo[1,2-a]pyridine]	32 nM
c1ccn2cc(-c3ccc(OCCCN4CCCCC4)cc3)nc2c1 [Example 52, 2-[4-(3-Piperidin-1-yl-propoxy)-phenyl]-imidazo[1,2-a]pyridine]	5 nM
Cc1ccn2cc(-c3ccc(OCCCN4CCCCC4)cc3F)nc2c1 [Example 20, 2-(4-Piperidinopropoxy-2-fluorophenyl)-7-methylimidazo[1,2-a]pyridine]	10 nM
CCN(CCOc1ccc(-c2cn3ccccc3n2)cc1)c1ccccc1 [Example 10, 2-(4-(N-Ethyl)anilinoethoxyphenyl)imidazo[1,2-a]pyridine]	611 nM
c1cc(-c2cn3c(n2)CCCC3)ccc1OCCCN1CCCCC1 [Example 16, 2-[4-(3-Piperidin-1-yl-propoxy)-phenyl]-5,6,7,8-tetrahydro-imidazo[1,2-a]pyridine]	0.75 nM
COc1cc(-c2cn3ccc(C)cc3n2)ccc1OCCCN1CCCC1 [Example 13, 2-[3-Methoxy-4-(3-pyrrolidin-1-yl-propoxy)-phenyl]-7-methyl-imidazo[1,2-a]pyridine]	63 nM
COc1cc(-c2cn3ccc(C)cc3n2)ccc1OCCCN1CCCCC1 [Example 26, 2-(4-Piperidinopropoxy-3-methoxyphenyl)-7-methylimidazo[1,2-a]pyridine]	159 nM
CCCNCC(O)COc1ccc(-c2cn3cccc(C)c3n2)cc1 (centres unmarked) [Example 46, 2-[4-(2-hydroxy-3-propylaminopropoxy)phenyl]-8-methylimidazo[1,2-a]pyridine]	1000 nM
CCN(CC)CCCNc1ccc(-c2cn3ccc(C)cc3n2)cc1 [Example 30, N,N-Diethyl-N′-[4-(7-methyl-imidazo[1,2-a]pyridin-2-yl)-phenyl]-propane-1,3-diamine]	3 nM

Structure (SMILES)	Ki
Cc1cc(OCCCN2CCCCC2)ccc1-c1cn2c(n1)CC(C)CC2 (centres unmarked) [Example 17, 7-Methyl-2-[2-methyl-4-(3-piperidin-1-yl-propoxy)-phenyl]-5,6,7,8-tetrahydro-imidazo[1,2-a]pyridine]	3.2 nM
Cc1ccn2cc(-c3ccc(OCCCN4CCCCCC4)cc3)nc2c1 [Example 19]	2 nM
Cc1ccn2cc(-c3ccc(OCCCN4CCCCCC4)cc3C)nc2c1 [Example 24]	0.5 nM
COc1cc(-c2cn3ccc(C)cc3n2)ccc1OCCCN1CCCCCC1 [Example 14, 2-[4-(3-Azepan-1-yl-propoxy)-3-methoxy-phenyl]-7-methyl-imidazo[1,2-a]pyridine]	34 nM
Cc1ccn2cc(-c3ccc(CCCCN4CCCC4)cc3)nc2c1 [Example 37, 2-[4-[4-Pyrrolidinobutyl]phenyl]-7-methylimidazo[1,2-a]pyridine]	10 nM
Cc1cccn2cc(-c3ccc(NCCCN4CCCCC4)cc3)nc12 [Example 27, 2-[4-[3-(Piperidino)propylamino]phenyl]-8-methylimidazo[1,2-a]pyridine]	7 nM
Cc1ccn2cc(-c3ccc(/C=C/CCN4CCCC4)cc3)nc2c1 [Example 40, 7-Methyl-2-[4-(4-pyrrolidin-1-yl-but-1-enyl)-phenyl]imidazo[1,2-a]pyridine]	17 nM
Cc1cccn2cc(-c3ccc(NCCN4CCCCC4)cc3)nc12 [Example 31, [4-(8-Methyl-imidazo[1,2-a]pyridin-2-yl)-phenyl]-(2-piperidin-1-yl-ethyl)-amine]	8 nM
Cc1cc(-c2cn3ccccc3n2)ccc1OCCCN1CCCCC1 [Example 12, 2-(4-Piperidinopropoxy-3-methylphenyl)imidazo[1,2-a]pyridine]	21 nM
Cc1ccn2cc(-c3ccc(OCCCNCc4ccc(F)cc4)cc3)nc2c1 [Example 25, 2-(4-(4-Fluorobenzyl)aminopropoxyphenyl)-7-methylimidazo[1,2-a]pyridine]	1500 nM
CCN(CC)CCCNc1ccc(-c2cn3cccc(C)c3n2)cc1 [Example 29, N,N-Diethyl-N′-[4-(8-methyl-imidazo[1,2-a]pyridin-2-yl)-phenyl]-propane-1,3-diamine]	9 nM
Cc1cccn2cc(-c3ccc(C(=O)OCCN(C)C)cc3)nc12 [Example 2, 4-(8-Methyl-imidazo[1,2-a]pyridin-2-yl)-benzoic acid 2-dimethylamino-ethyl ester]	89 nM
CCN(CC)CCNc1ccc(-c2cn3cccc(C)c3n2)cc1 [Example 7, N,N-Diethyl-N′-[4-(8-methyl-imidazo[1,2-a]pyridin-2-yl)-phenyl]-ethane-1,2-diamine]	4 nM
Cc1cc(-c2cn3ccccc3n2)ccc1OCCC1CCCN1C (centres unmarked) [Example 11, 2-[4-[2-(1-Methyl)-2-pyrrolidino]ethoxy-3-methylphenyl]imidazo[1,2-a]pyridine]	7 nM
Cc1cccn2cc(-c3ccc(NC(=O)CCN4CCCCC4)cc3)nc12 [Example 28, 2-[4-[3-(Piperidinyl)]propanamidophenyl]-8-methylimidazo[1,2-a]pyridine]	158 nM
Cc1cccn2cc(-c3ccc(NC(=O)CN4CCCC4)cc3)nc12 [Example 4, N-[4-(8-Methyl-imidazo[1,2-a]pyridin-2-yl)-phenyl]-2-pyrrolidin-1-yl-acetamide]	70 nM
Cc1ccn2cc(-c3ccc(C#CCCN4CCCC4)cc3)nc2c1 [Example 34, 2-[4-[4-Pyrrolidinobut-1-ynyl]phenyl]-7-methylimidazo[1,2-a]pyridine]	3 nM
Cc1ccn2cc(-c3cccc(OCCCN4CCCCC4)c3)nc2c1 [Example 15, 7-Methyl-2-[3-(3-piperidin-1-yl-propoxy)-phenyl]-imidazo[1,2-a]pyridine]	28 nM
Cc1ccn2cc(-c3ccc(C=CCCN4CCCCC4)cc3)nc2c1 (mixture of isomers) [Example 36, (E/Z)-2-[4-[4-Piperidinobut-1-enyl]phenyl]-7-methylimidazo[1,2-a]pyridine]	11 nM
Cc1cccn2cc(-c3ccc(OCCCN4CCCCC4)cc3)nc12 [Example 54, 2-(4-Piperidinopropoxyphenyl)-8-methylimidazo[1,2-a]pyridine]	1 nM
